A short description of data set [1]: Fecal elimination of fluralaner after oral administration, Jaguar. The format is in vivo, Panthera onca. As to conditions: Jaguar n = 1. As for the experimental part:
Based on the species present at the Paris Zoo, the animals selected to be part of the study are described in Table 1.
Each individual received 1–3 tablets of fluralaner (Bravecto®, formulations from 112.5 mg to 1,400 mg per tablet), based on the dose determined (Table 2) and the actual BW of the animal on day 0 (D0). Tablets were administered with the food. Tablets were not divided, according to the summary of product characteristics and the dose administered was adjusted as closely as possible to the theoretical dose calculated. The recommended bracket doses (25–56 mg/kg in a 20-kg dog) were used as a guideline (adjusted to the body weight of the animals) to ensure that the actual dose administered would remain in the acceptable margin. For instance, for the Iberian Wolf: using the dose range 25–56 mg/kg gave a D-reference of [500–1,120] mg, thus c = D-ref/P-ref = [0.76–1.69], i.e., D-target = [763–1,698] mg, resulting in a reference range of [21.9–48.6] mg.kg^−1. The actual doses administered were between 28 and 30 mg.kg^−1. This was checked for all species.
Feces were sampled on the floor, in priority on concrete ground in indoor facilities when animals were isolated. Fecal sampling was performed by keepers with gloves, transferred to sterile vials, then saved at −80°C until transfer to the lab.
For feces analysis, well-homogenized samples were weighed and dried at 40°C overnight to eliminate water. 200 mg of the dried sample were weighed, 80 μL of IS solution (0.5 μg/mL solution), 0.52 mL of water, 200 mg QuEChERS salts and 1 mL of acetonitrile were added in a 5 mL plastic centrifuge tube. The sample was then mixed well by vortexing for 2 min and then centrifuged at 12,000 rpm for 5 min.
The upper clear layer solutions were transferred to auto-sampler vials and placed in the auto-sampler at 10°C for LC–MS/MS analysis. All results are reported in μg.kg^−1 dry weight (dw).
All pharmacokinetic data were computed using a non-linear model and “PK solver” in Microsoft-excel®. This approach has been used by Kilp et al. ([21]) and considered satisfactory by comparison with a standard PK software such as WinNonLIn®.
Only Lion and Mountain lion data (3 individuals+negative control for each species) are presented in Figure 2 as mean ± SD of the fecal concentration of fluralaner vs. time post administration. When data were LOD < Data<LOQ, an average value of 4 has been used (for graphical and PK analysis purposes). When concentrations were < LOD, ½ LOD value was used for the same purposes.

Details of data set [2]: method as in PMID 33480547. Conditions: black bears, orally at 25 mg.kg^−1; cited from earlier work.
For the next data set, the system named is sarcoptic mange. Further details: method as in PMID 30895701. Conditions: Raccoon dogs, one oral dose; cited from earlier work.
On the set-up of data set [3]: method as in ref 27 = [27]; 27. VSDB Veterinary substances DataBase consulted on June 1st, ( 2022 ) Available at: http://sitem.herts.ac.uk/aeru/vsdb/index.htm. Conditions: VSDB; cited from earlier work.
The conditions of data set [4]: cited from earlier work.
The conditions of data set [5]: cited from earlier work. The source holds these as a separate data set.
The subject of the next data set is Daphnia magna. Further details: method as in ref 10 = [10]; 10. CVMP ( 2017 ) CVMP assessment report for EXZOLT (EM EA/V/C/004344/0000), EMA/377159/2017, Available at: https://www.ema.europa.eu/en/documents/assessment-report/exzolt-epar-public-assessment-repor. As to conditions: cited from earlier work.
The mark [6] stands for this setting: fecal elimination, oral 34.5 mg.kg^−1.

Molecules are shown by their SMILES. Converted amounts (≈) assume the structure as drawn. Read-outs that look alike come from different tables or passages of the source.

As a reminder, the MRT is a mean duration of stay, worked out from the concentration-time curve. Usually LC50 stands for the concentration lethal to half of the exposed cells or organisms.

Take `Cc1cc(C2=NOC(c3cc(Cl)cc(Cl)c3)(C(F)(F)F)C2)ccc1C(=O)NCC(=O)NCC(F)(F)F` (stereo not shown) [fluralaner, Fluralaner]: in data set [1] (setting [6]), the MRT was found to be 360 h and the t1/2 is 190 h. For the same molecule, the Cmax in data set [1] (feces, Bravecto tablets oral with food, 34.5 mg.kg^−1, rough estimate) is 16,089 μg.kg-^1 dry weight. Further, in data set [1] (feces, oral 34.5 mg.kg^−1), the “AUC (D0-D112)” value was 145,337 d* μg.kg-^1 dry weight, the “AUC(0-infini)” value is 145,752 d* μg.kg-^1 dry weight and the Last detection day is 72 days. In addition, the tmax in data set [1] (feces, oral 34.5 mg.kg^−1, rough estimate) is 170 h. Moreover, the Half-life in data set [2] was 118 h. In addition, in the data set with sarcoptic mange, the “Time to cure from sarcoptic mange” value is on record as 7 days. Moreover, in data set [3], the Hydrolysis entry is given as “not degraded by hydrolysis” and the Lipophilicity entry was “lipophilic”. Further, the “Effect of food on bioavailability” value in data set [4] (dogs fed prior to the administration of the drug) is listed as “doubled”. Besides, in data set [4] (dogs, oral administration), the Half-life was 264 to 312 h. Moreover, the “Bioavailability, topical administration” value in data set [4] (dogs, topical) is 22–25%. In addition, the DT50 in soil in data set [5] (CVMP assessment report) was ~1,000 days. In addition, in data set [5] (VSDB), the DT50 in soil was 60 days. Also, the “DT50 in aquatic environments” value in data set [5] (aerobic waters) is 3 to 4 days. Moreover, the DT50 in soil result in data set [5] (sandy loams) is on record as “up to 989 days”. Moreover, the DT50 in sediments in data set [5] (sediments) is 112 to 195 days. Moreover, in the data set on Daphnia magna (Daphnia magna, assessment report for EXZOLT), the LC50 was 0.047 µg/mL (≈ 0.0845 µM). Besides, the “No Observed Effect Concentration (NOEC) for reproduction” value with Daphnia magna (Daphnia magna) was 0.047 µg/L. The Toxicity classification entry with Daphnia magna (aquatic invertebrates (Daphnia magna)) was “highly toxic”.

These data come from publication PMC11362066, “Fecal elimination of fluralaner in different carnivore species after oral administration” (Frontiers in Veterinary Science, 2024).
